In patent US20160160232A1, “ALS INHIBITOR HERBICIDE TOLERANT MUTANT PLANTS” (priority 2013, published 2016):

What was measured:
[1] = system: spring oilseed rape variety ABILITY; assay: Field trial, visible phytotoxicity (Table 2); assay type: in vivo, Brassica napus; conditions: applied at BBCH 14, 200 L/ha water, g ai/ha: Foramsulfuron 25, TCM 15, Iodosulfuron 7, Mesosulfuron 60, Amidosulfuron 30, Ethoxysulfuron 60, Imazamox 40, Metosulam 30, Bispyribac 50, Nicosulfuron 60, Metsulfuron 8, Propoxycarbazone 70, Pyroxsulam 50, Tribenuron 30, Rimsulfuron 12.5, Flucarbazone 40, Thifensulfuron 7.5
From the text: (§1) Seeds of spring oilseed rape homozygous for HETO133 and HETO134 were sown in a field according to typical practical agricultural methods. The registered spring oilseed rape variety ABILITY, the wild-type segregant (WTS), and plants comprising a P197S mutation on ALS I and a W574L mutation on ALS III (P197S-W574L) served as a comparison. All plants were cultivated up to BBCH stage 14 (four true leaves of the oilseed rape plants). Afterwards, the herbicides mentioned in table 2 have been applied to the oilseed rape plants by using specific spray equipment for small plot applications. The water amount used was 200 L/ha.

[2] = system: oilseed rape comprising a P197S mutation on ALS I and a W574L mutation on ALS III (P197S-W574L); assay: Field trial, visible phytotoxicity (Table 2); assay type: in vivo, Brassica napus; conditions: applied at BBCH 14, 200 L/ha water, g ai/ha: Foramsulfuron 25, TCM 15, Iodosulfuron 7, Mesosulfuron 60, Amidosulfuron 30, Ethoxysulfuron 60, Imazamox 40, Metosulam 30, Bispyribac 50, Nicosulfuron 60, Metsulfuron 8, Propoxycarbazone 70, Pyroxsulam 50, Tribenuron 30, Rimsulfuron 12.5, Flucarbazone 40, Thifensulfuron 7.5
From the text: as §1

[3] = system: wild-type segregant (WTS) oilseed rape; assay: Field trial, visible phytotoxicity (Table 2); assay type: in vivo, Brassica napus; conditions: applied at BBCH 14, 200 L/ha water, g ai/ha: Foramsulfuron 25, TCM 15, Iodosulfuron 7, Mesosulfuron 60, Amidosulfuron 30, Ethoxysulfuron 60, Imazamox 40, Metosulam 30, Bispyribac 50, Nicosulfuron 60, Metsulfuron 8, Propoxycarbazone 70, Pyroxsulam 50, Tribenuron 30, Rimsulfuron 12.5, Flucarbazone 40, Thifensulfuron 7.5
From the text: as §1

[4] = system: oilseed rape homozygous for HETO133 and HETO134; assay: Field trial, visible phytotoxicity (Table 2); assay type: in vivo, Brassica napus; conditions: applied at BBCH 14, 200 L/ha water, g ai/ha: Foramsulfuron 25, TCM 15, Iodosulfuron 7, Mesosulfuron 60, Amidosulfuron 30, Ethoxysulfuron 60, Imazamox 40, Metosulam 30, Bispyribac 50, Nicosulfuron 60, Metsulfuron 8, Propoxycarbazone 70, Pyroxsulam 50, Tribenuron 30, Rimsulfuron 12.5, Flucarbazone 40, Thifensulfuron 7.5
From the text: as §1

[5] = system: wild-type (WT) oilseed rape; assay: Further field trial, phytotoxicity (Table 3); assay type: in vivo, Brassica napus; conditions: g ai/ha: IMAZAMOX 40, BISPYRIBAC-SODIUM 50, PROPOXYCARBAZONE-SODIUM 70, MESOSULFURON-METHYL 60, PYROXSULAM 12.5 with CLOQUINTOCET-MEXYL 37.5, each with RAPESEED OIL METHYLATED 366.5
Procedure: (§2) In a further field trial, seeds of spring oilseed rape comprising HETO133 and HETO134, and wild type (WT) seeds were sown in a field. For the untreated plants, biomass was determined at 9, 16 and 24 days after application (DAA) as compared to a control variety. For the treated plants, phytotoxicity was assessed at 9, 16 and 24 days after application (DAA) according to a scale from 0 to 100%. For both wild-type and HETO133-HETO134, no thinning was observed.

[6] = system: oilseed rape homozygous for HETO133 and HETO134; assay: Further field trial, phytotoxicity (Table 3); assay type: in vivo, Brassica napus; conditions: g ai/ha: IMAZAMOX 40, BISPYRIBAC-SODIUM 50, PROPOXYCARBAZONE-SODIUM 70, MESOSULFURON-METHYL 60, PYROXSULAM 12.5 with CLOQUINTOCET-MEXYL 37.5, each with RAPESEED OIL METHYLATED 366.5
Procedure: as §2

[7] = system: Hypocotyl derived callus (WT tissues); assay: Callus selection on Foramsulfuron containing medium; assay type: cell-based, Brassica napus
Procedure: Five day old seedlings were used for the preparation of hypocotyl segments 7-10 mm in length. Hypocotyl segments were transferred to 14 cm Petri plates containing 75 ml of M-338 [H76] callus induction medium (25 explants/plate). M-338 [H76] medium is MS salts and vitamins (Murashige and Skoog, 1962), 20 g/l sucrose, 0.5 g/l MES, 0.5 g/l adenine sulphate, 5 mg/l silver nitrate, 0.5 mg/l 2,4-D, 0.2 mg/l kinetin and solidified with 5.5 g/l agarose (pH 5.7). Dishes were sealed and cultured at 24° C. with standard light conditions (16 h/day). After 3 weeks, calli developing at the ends of the explants were transferred to fresh M-338 [H76] plates (25 calli/plate). Calli were subcultured to fresh medium every 3 weeks (larger calli cut into two pieces).
Hypocotyl derived callus (9 weeks old) was used for the selection of herbicide resistant mutants. Small pieces of callus were plated on M-338 [H76] medium containing 25 nM of the ALS inhibitor Foramsulfuron (CAS RN 173159-57-4). […] Dishes were cultured at 24° C. with standard light conditions (16 h/day). After 3 weeks, the calli were divided into 2 pieces each and replated on M-338 [H76] medium containing 50 nM Foramsulfuron. […]

Row | Structure (SMILES) | Percentage phytotoxicity ABILITY 7 DAA [1] [%] | Percentage phytotoxicity standard 14 DAA [1] [%] | Percentage phytotoxicity standard 23 DAA [1] [%] | Percentage phytotoxicity P197S-W574L 7 DAA [2] [%] | Percentage phytotoxicity P197S-W574L 14 DAA [2] [%] | Percentage phytotoxicity P197S-W574L 23 DAA [2] [%] | Percentage phytotoxicity WTS 7 DAA [3] [%] | Percentage phytotoxicity WTS 14 DAA [3] [%] | Percentage phytotoxicity WTS 23 DAA [3] [%] | Percentage phytotoxicity HETO133-HETO134 7 DAA [4] [%] | Percentage phytotoxicity HETO133-HETO134 14 DAA [4] [%] | Percentage phytotoxicity HETO133-HETO134 23 DAA [4] [%] | Percentage phytotoxicity WT 9 DAA [5] [%] | Percentage phytotoxicity WT 16 DAA [5] [%] | Percentage phytotoxicity WT 24 DAA [5] [%] | Percentage phytotoxicity HETO133-HETO134 9 DAA [6] [%] | Percentage phytotoxicity HETO133-HETO134 16 DAA [6] [%] | Percentage phytotoxicity HETO133-HETO134 24 DAA [6] [%] | effect on callus growth ([7]; 25 nM Foramsulfuron in M-338 [H76] medium, starting concentration) | effect on WT tissues ([7]; 250 nM Foramsulfuron in M-338 [H76] medium)
1 | COC(=O)c1ccccc1S(=O)(=O)NC(=O)Nc1nc(C)nc(OC)n1 [Metsulfuron, metsulfuron-methyl] | 86 | 98 | 99 | 45 | 50 | 62 | 86 | 98 | 99 | 50 | 63 | 78 | – | – | – | – | – | – | – | –
2 | COC(=O)c1ccc(CNS(C)(=O)=O)cc1S(=O)(=O)NC(=O)Nc1nc(OC)cc(OC)n1 [Mesosulfuron, mesosulfuron-methyl] | 85 | 98 | 99 | 40 | 40 | 45 | 85 | 98 | 99 | 33 | 38 | 35 | 76.7 | 98 | 96 | 11.7 | 13.3 | 3.3 | – | –
3 | COc1cc(OC)nc(NC(=O)NS(=O)(=O)c2cc(NC=O)ccc2C(=O)N(C)C)n1 [Foramsulfuron, foramsulfuron] | – | – | – | – | – | – | – | – | – | – | – | – | – | – | – | – | – | – | partially inhibitory to callus growth but not lethal | clearly inhibitory to WT tissues
4 | COc1nn(C(=O)[N-]S(=O)(=O)c2ccccc2OC(F)(F)F)c(=O)n1C.[Na+] [Flucarbazone, flucarbazone-sodium] | 85 | 98 | 99 | 10 | 6 | 10 | 85 | 98 | 99 | 0 | 0 | 0 | – | – | – | – | – | – | – | –
5 | COc1cc(OC)nc(Oc2cccc(Oc3nc(OC)cc(OC)n3)c2C(=O)O)n1 [Bispyribac, bispyribac-sodium] | – | – | – | – | – | – | – | – | – | – | – | – | 76.7 | 98.3 | 100 | 56.7 | 88.3 | 92.7 | – | –
6 | CCCOc1nn(C(=O)[N-]S(=O)(=O)c2ccccc2C(=O)OC)c(=O)n1C.[Na+] [Propoxycarbazone, propoxycarbazone-sodium] | 86 | 98 | 99 | 47 | 52 | 47 | 86 | 98 | 99 | 57 | 72 | 83 | 76.7 | 97 | 97.7 | 53.3 | 82.7 | 76.7 | – | –
7 | COC(=O)c1csc(C)c1S(=O)(=O)NC(=O)n1nc(OC)n(C)c1=O [TCM, thiencarbazone-methyl] | 85 | 98 | 99 | 16 | 13 | 17 | 85 | 98 | 99 | 0 | 0 | 3 | – | – | – | – | – | – | – | –
8 | COc1cc(OC)n2nc(NS(=O)(=O)c3c(C(F)(F)F)ccnc3OC)nc2n1 [Pyroxsulam, pyroxsulam] | 83 | 98 | 99 | 15 | 16 | 18 | 83 | 98 | 99 | 0 | 0 | 5 | 76.7 | 98 | 98 | 13.3 | 17 | 15 | – | –
9 | COCc1cnc(C2=NC(C)(C(C)C)C(=O)N2)c(C(=O)O)c1 (centres unmarked) [Imazamox, imazamox] | – | – | – | – | – | – | – | – | – | – | – | – | 73.3 | 98 | 99 | 6.7 | 10 | 0 | – | –
